These results are taken from publication PMC9960814, “The SlDOG1 Affect Biosynthesis of Steroidal Glycoalkaloids by Regulating GAME Expression in Tomato” (International Journal of Molecular Sciences, 2023).

For one series, the system named is SlGAME5-like. The series can be described thus: glycosyltransferase kinetics, […] substrate. It is filed as biochemical, Solanum lycopersicum. The note with it: 15 mM UDP-galactose as fixed glycosyl donor.
The subject of series [1] is O=c1c(O)c(-c2ccc(O)c(O)c2)oc2cc(O)cc(O)c12. The series can be described thus: purified protein. The note with it: 15 mM UDP-galactose as fixed glycosyl donor. It counts as biochemical, Solanum lycopersicum.

Usually Km stands for the substrate concentration at which the rate is half of its maximum. `O=c1c(O)c(-c2ccc(O)c(O)c2)oc2cc(O)cc(O)c12` [quercetin]: the Michaelis-Menten constant (Km) with SlGAME5-like is 33 µM.
In the case of `C[C@H]1CC[C@]2(NC1)O[C@H]1C[C@H]3[C@@H]4CC[C@H]5C[C@@H](O)CC[C@]5(C)[C@H]4CC[C@]3(C)[C@H]1[C@@H]2C` [tomatidine], the Michaelis-Menten constant (Km) in the series with SlGAME5-like (methods print the varied substrate as tomatine) was found to be 40 µM.
For the molecule SlGAME5 (Solanum lycopersicum), the Michaelis constant (Km) in series [1] was found to be 17.50 µM.
